Test results from PubChem BioAssay (NCI).
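48-hour exposure; five concentrations; linearly interpolated endpoints. Definition used: TGI = concentration required for complete inhibition of growth.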

Columns and labels:
Test in all cases: DTP human tumour cell line panel, 48 h
OVCAR-4 ovarian = test system: OVCAR-4 ovarian
KM12 colon = test system: KM12 colon
OVCAR-5 ovarian = test system: OVCAR-5 ovarian
SK-MEL-5 melanoma = test system: SK-MEL-5 melanoma
SF-539 CNS = test system: SF-539 CNS
NCI-H460 lung = test system: NCI-H460 lung
SK-MEL-28 melanoma = test system: SK-MEL-28 melanoma
HOP-92 NSCLC = test system: HOP-92 NSCLC
CCRF-CEM leukemia = test system: CCRF-CEM leukemia
UO-31 renal = test system: UO-31 renal
A549 NSCLC = test system: A549 NSCLC
SK-MEL-2 melanoma = test system: SK-MEL-2 melanoma
EKVX NSCLC = test system: EKVX NSCLC
BT-549 breast = test system: BT-549 breast
NCI-H226 lung = test system: NCI-H226 lung
TK-10 renal = test system: TK-10 renal
HT29 colon = test system: HT29 colon
A498 renal = test system: A498 renal
MDA-N = test system: MDA-N
RXF 393 renal = test system: RXF 393 renal
IGROV1 ovarian = test system: IGROV1 ovarian
HCT-15 colon = test system: HCT-15 colon
786-0 renal = test system: 786-0 renal
UACC-257 melanoma = test system: UACC-257 melanoma
ACHN renal = test system: ACHN renal
UACC-62 melanoma = test system: UACC-62 melanoma
NCI/ADR-RES ovarian = test system: NCI/ADR-RES ovarian
LOX IMVI melanoma = test system: LOX IMVI melanoma
MDA-MB-231 breast = test system: MDA-MB-231 breast
COLO 205 colon = test system: COLO 205 colon
SF-268 CNS = test system: SF-268 CNS
MCF7 breast = test system: MCF7 breast
HL-60(TB) leukemia = test system: HL-60(TB) leukemia
M14 melanoma = test system: M14 melanoma
SW-620 colon = test system: SW-620 colon
K-562 leukemia = test system: K-562 leukemia
MOLT-4 leukemia = test system: MOLT-4 leukemia
U251 CNS = test system: U251 CNS
HCT-116 colon = test system: HCT-116 colon
HCC-2998 colon = test system: HCC-2998 colon
OVCAR-8 ovarian = test system: OVCAR-8 ovarian
NCI-H23 lung = test system: NCI-H23 lung
NCI-H522 lung = test system: NCI-H522 lung
SN12C renal = test system: SN12C renal
T-47D breast = test system: T-47D breast
HS 578T breast = test system: HS 578T breast
SR leukemia = test system: SR leukemia
RPMI-8226 leukemia = test system: RPMI-8226 leukemia
MALME-3M melanoma = test system: MALME-3M melanoma
SNB-19 CNS = test system: SNB-19 CNS
MDA-MB-435 = test system: MDA-MB-435
PC-3 prostate = test system: PC-3 prostate
SNB-75 CNS = test system: SNB-75 CNS
SF-295 CNS = test system: SF-295 CNS
CAKI-1 renal = test system: CAKI-1 renal
HOP-62 NSCLC = test system: HOP-62 NSCLC
SK-OV-3 ovarian = test system: SK-OV-3 ovarian
DU-145 prostate = test system: DU-145 prostate

For `O=C1C(Cl)C2(CC(/C=C/c3ccccc3O)=NN2c2cccc(S(=O)(=O)O)c2)N1c1nc2ccccc2s1` (configuration not stated), the TGI (OVCAR-4 ovarian) was 27.4 µM, the TGI (KM12 colon) was 30.3 µM and the TGI (OVCAR-5 ovarian) was 45.8 µM. It also gave a TGI (SK-MEL-5 melanoma) of 26.1 µM, a TGI (SF-539 CNS) of 36.5 µM and a TGI (NCI-H460 lung) of 34.6 µM. It also gave a TGI (SK-MEL-28 melanoma) of 71.2 µM, a TGI (HOP-92 NSCLC) of 37 µM and a TGI (CCRF-CEM leukemia) of 34.7 µM. The TGI (UO-31 renal) was 26.2 µM, the TGI (A549 NSCLC) was 82.5 µM and the TGI (SK-MEL-2 melanoma) was 40.8 µM. For the same compound, the TGI (EKVX NSCLC) was 45.8 µM, the TGI (BT-549 breast) was 34.9 µM and the TGI (NCI-H226 lung) was 51.2 µM. It also gave a TGI (TK-10 renal) of 26 µM, a TGI (HT29 colon) of 39 µM and a TGI (A498 renal) of 50.5 µM. For the same compound, the TGI (MDA-N) was 47 µM, the TGI (RXF 393 renal) was over 100 µM and the TGI (IGROV1 ovarian) was 31.2 µM. It also gave a TGI (HCT-15 colon) of 44.6 µM, a TGI (786-0 renal) of 30 µM and a TGI (UACC-257 melanoma) of 42 µM. It also gave a TGI (ACHN renal) of 53 µM, a TGI (UACC-62 melanoma) of 30.9 µM and a TGI (NCI/ADR-RES ovarian) of over 100 µM. The TGI (LOX IMVI melanoma) was 24.7 µM, the TGI (MDA-MB-231 breast) was 74.6 µM and the TGI (COLO 205 colon) was 38.7 µM. For the same compound, the TGI (SF-268 CNS) was 43.4 µM, the TGI (MCF7 breast) was 31.8 µM and the TGI (HL-60(TB) leukemia) was 14.5 µM. For the same compound, the TGI (M14 melanoma) was 37.8 µM, the TGI (SW-620 colon) was 42.9 µM and the TGI (K-562 leukemia) was 86.1 µM. The TGI (MOLT-4 leukemia) was 47.7 µM, the TGI (U251 CNS) was 46.9 µM and the TGI (HCT-116 colon) was 31 µM. For the same compound, the TGI (HCC-2998 colon) was 29 µM, the TGI (OVCAR-8 ovarian) was 63.9 µM and the TGI (NCI-H23 lung) was 33.2 µM. The TGI (NCI-H522 lung) was 14.6 µM, the TGI (SN12C renal) was 27.8 µM and the TGI (T-47D breast) was 37.4 µM. For the same compound, the TGI (HS 578T breast) was over 100 µM, the TGI (SR leukemia) was 58 µM and the TGI (RPMI-8226 leukemia) was 35.5 µM. For the same compound, the TGI (MALME-3M melanoma) was 27.1 µM, the TGI (SNB-19 CNS) was over 100 µM and the TGI (MDA-MB-435) was 31.1 µM. For the same compound, the TGI (PC-3 prostate) was over 100 µM and the TGI (SNB-75 CNS) was over 100 µM.

Compound `OC(c1cc2ccccc2[nH]1)C1(c2cccnc2)SCCCS1` (configuration not stated) has a TGI (OVCAR-4 ovarian) of over 100 µM, a TGI (KM12 colon) of 82 µM and a TGI (OVCAR-5 ovarian) of over 100 µM. The TGI (SK-MEL-5 melanoma) was over 100 µM, the TGI (NCI-H460 lung) was over 100 µM and the TGI (SK-MEL-28 melanoma) was over 100 µM. The TGI (HOP-92 NSCLC) was over 100 µM, the TGI (UO-31 renal) was over 100 µM and the TGI (A549 NSCLC) was over 100 µM. It also gave a TGI (SF-295 CNS) of over 100 µM, a TGI (SK-MEL-2 melanoma) of over 100 µM and a TGI (EKVX NSCLC) of over 100 µM. For the same compound, the TGI (BT-549 breast) was over 100 µM, the TGI (NCI-H226 lung) was over 100 µM and the TGI (TK-10 renal) was over 100 µM. It also gave a TGI (HT29 colon) of over 100 µM, a TGI (CAKI-1 renal) of over 100 µM and a TGI (A498 renal) of over 100 µM. It also gave a TGI (HOP-62 NSCLC) of over 100 µM, a TGI (MDA-N) of over 100 µM and a TGI (RXF 393 renal) of over 100 µM. The TGI (IGROV1 ovarian) was over 100 µM, the TGI (HCT-15 colon) was over 100 µM and the TGI (SK-OV-3 ovarian) was over 100 µM. It also gave a TGI (786-0 renal) of over 100 µM, a TGI (UACC-257 melanoma) of over 100 µM and a TGI (ACHN renal) of over 100 µM. The TGI (UACC-62 melanoma) was over 100 µM, the TGI (NCI/ADR-RES ovarian) was over 100 µM and the TGI (LOX IMVI melanoma) was over 100 µM. It also gave a TGI (MDA-MB-231 breast) of over 100 µM, a TGI (COLO 205 colon) of over 100 µM and a TGI (SF-268 CNS) of over 100 µM. The TGI (MCF7 breast) was over 100 µM, the TGI (HL-60(TB) leukemia) was over 100 µM and the TGI (M14 melanoma) was over 100 µM. It also gave a TGI (SW-620 colon) of over 100 µM, a TGI (K-562 leukemia) of over 100 µM and a TGI (MOLT-4 leukemia) of over 100 µM. For the same compound, the TGI (U251 CNS) was over 100 µM, the TGI (HCT-116 colon) was over 100 µM and the TGI (OVCAR-8 ovarian) was over 100 µM. The TGI (NCI-H23 lung) was over 100 µM, the TGI (NCI-H522 lung) was over 100 µM and the TGI (SN12C renal) was over 100 µM. The TGI (T-47D breast) was over 100 µM, the TGI (HS 578T breast) was over 100 µM and the TGI (SR leukemia) was over 100 µM. For the same compound, the TGI (MALME-3M melanoma) was over 100 µM, the TGI (SNB-19 CNS) was over 100 µM and the TGI (MDA-MB-435) was over 100 µM. It also gave a TGI (DU-145 prostate) of over 100 µM, a TGI (PC-3 prostate) of over 100 µM and a TGI (SNB-75 CNS) of over 100 µM.
